Test results from patent US20250172542A1, “METHOD FOR INDUCING ARTIFICIAL AGEING IN A STEM CELL AND USES OF SAID CELL” (Clock Bio Limited, priority 2022, published 2025).

Key:
Bob NGN2 and Bob N2P iNs = experiment: RT-PCR of neuronal markers in iNeurons treated with or without cumate; type: cell-based, human; conditions: RT-PCR relative to PBGD1
Method: (§1) NGN2 and NGN2-Progerin iPSCs were dissociated into single cells with Accutase and plated onto PDL/Geltrex coated dishes at a density of 30K cells per cm^2. Forward programming was initiated 24 hours after the split. The induction was performed in DMEM/F-12 supplemented with Glutamax (100×), Non-Essential Amino Acids (100×), 50 μM 2-Mercaptoethanol (Gibco), 1% Penicillin/Streptomycin, 1 μg/mL Dox. After 2 days of induction, the medium was switched to Neurobasal-medium supplemented with Glutamax (100×), B27 (50×), 10 ng/mL BDNF (Peprotech), 10 ng/mL NT3 (R&D Systems), 1% Penicillin/Streptomycin, and 1 μg/mL Dox. In order to age NGN2-Progerin iNeurons (iNs), at D7 post induction, cumate was added to the medium for 7 days. Pre-aged iNs were induced as described above from 5 days aged NGN-Progerin iPSCs, no additional cumate was added during the induction process.
cDNA synthesis was performed with the Maxima First Strand cDNA Synthesis Kit (Thermo Fisher Scientific). PowerUp SYBR Green Master Mix (Thermo Fisher Scientific) was used for RT-PCR. Samples were run on the QuantStudio 6 Flex Real-Timer PCR System machine (Applied Biosystems). All samples were analysed in technical duplicates and normalised to the house-keeping gene Porphobilinogen Deaminase 1 (PBGD1). Results were analysed with the ΔΔCt method. […]

[1] = system: GFP-Progerin expression under the cumate switch (CymR/CuO); experiment: Cumate dose response assay (GFP-Progerin expression in iNeurons); type: cell-based, human; conditions: neurons induced with doxycycline and cumate
Method: as §1
In order to allow for a separate control of NGN2 and progerin expression, the OPTi-OX technology was used and a dual system designed which is based on both the TetOn (Baron and Bujard (2000)) and the cumate switch (Mullick et al. (2006); Sato et al. (2020); and Seo and Schmidt-Dannert (2019)) inducible systems. This new system was referred to as (Opti-OX)^2. The cumate repressor (CymR) was first cloned into the original ROSA26 targeting vector, linked by a 2A sequence to rtTA (FIGS. 7A-F). […]

SMILES: CC(C)c1ccc(C(=O)O)cc1 [cumate]
- effect of cumate itself on gene expression (MAP2 and synapsin-1 downregulation) (Bob NGN2 and Bob N2P iNs): not responsible for the changes seen in gene expression
- GFP expression as a function of cumate dose [1]: titrated by adjusting the dose
